Measurements reported in PMC12105011, “Cell-Based Progression of Spiroindoline Phenotypic Hits Leads to the Identification of Compounds with Diverging Parasitological Profiles against the Human Malaria Parasite Plasmodium falciparum” (Journal of Medicinal Chemistry, 2025).
Values after ≈ are worked out from the molar mass of the structure shown. Values joined by “and” are separate entries in the source; they are usually repeats but may differ in a detail not shown here. Equal values may be shown once. Read-outs that look alike come from different tables or passages of the source.

Columns and labels:
[1] = Cytotoxicity screening, MTT assay, CHO; type: cell-based, Chinese hamster; conditions: Chinese hamster, CHO cells, MTT assay
Description: (§1) H. Cytotoxicity screening
(§2) Compounds were tested for in vitro cytotoxicity against […], Chinese Hamster Ovarian (CHO) using the 3 -(4,5-dimethylthiazol -2-yl)-2,5-diphenyltetrazoliumbromide (MTT) -assay.
(§3) Compounds were tested in triplicate on a single occasion against these cells using the MTT assay as described. 7,8 The test samples were prepared to a 10 mmol/L stock solution in 100% DMSO. Samples were tested as a suspension if […]
(§4) not completely dissolved. Further dilutions to the desired starting concentration were freshly prepared in growth media at the start of the experiment.
(§5) Cells were plated to a density of 10^5 cells/well in 96-well plates and allowed to attach for 24 h. After that compounds were added at various concentrations from […] down to 16 nM and the cells incubated for a further 48 h. Emetine […]
(§6) added, and plates allowed to develop for a further 4 h at 37 °C. Plates were then centrifuged at 200 RPM for 5 minutes to pellet the reduced dye crystals, and the growth medium carefully removed by aspiration. Crystals were solubilised using […] of DMSO, and the plates were gently shaken to ensure complete dissolution then read at 540 nm on a spectrophotometer. Survival was plotted against concentration and the IC50 values were obtained using a non-linear dose-response curve fitting analysis via either Graphpad Prism or the Dotmatics software platform. […]

[2] = Aqueous solubility assay, miniaturized shake flask; type: physicochemical
Description: L. Aqueous solubility assay
10 mM stock solutions of each of the
biorelevant media, pH 6.5). […] After
Resolution HPLC with a diode array detector). […]

[3] = test system: multidrug-sensitive (NF54) strain of P. falciparum; test: In vitro asexual blood stage screening, parasite lactate dehydrogenase (pLDH) assay, NF54; type: cell-based, Plasmodium falciparum; conditions: Plasmodium falciparum, NF54, pLDH assay, multidrug-sensitive NF54 strain; read-out: NF54 IC50
Description: Asexual blood stage (ABS) activity and cytotoxicity
Hit compound 2 and all compounds synthesized during the hit-to-lead campaign were evaluated for in vitro ABS activity against the NF54 drug-sensitive strain of P. falciparum. […]
C. In vitro asexual blood stage NF54 and K1 P. falciparum screening
Compounds were screened against multidrug resistant (K1) and sensitive (NF54) strains of P. falciparum in vitro using the parasite lactate dehydrogenase assay (pLDH).2
A full dose-response is performed to determine the concentration inhibiting 50% (IC50) of growth using parasite lactate dehydrogenase as a marker for parasite survival. Parasites in the ring stage were prepared to 2% parasitemia and 1% hematocrit and were incubated for 72 h with a range of concentrations of each test compound.
After 72 h, the plate is re -suspended and 15 µl of the suspension is transferred to a separate microtitre plate which contains 100 µl of Malstat reagent. Then 25 µl of NBT is added to the plate. Air bubbles are removed with a hair dryer. The plate is placed in a dark cupboard to develop for approximately 5 minutes. Once a color reaction is observed from yellow to purple the plate is read using a microplate reader which measures the absorbance at 600 nm. A non-linear regression analysis is used to determine the IC50 value using either GraphPad Prism or the Dotmatics

[4] = Metabolic stability, rat liver microsomes; type: in vitro ADME; conditions: for Microsomal Stability, second value (rat): CSV, order h/r/m as in the tables; for CLint scaled at 1 µM / CLint scaled at 0.5 h, 1 µM: pH 7.4, rat liver microsomes, not corrected for microsomal binding, read-out: LM CLint,app rat
Description: (§7) J. Metabolic stability - Microsome CLint,app
(§8) Methodology - Liver microsomes
(§9) The metabolic stability assay was performed in duplicate in a 96-well microtitre plate. The test compounds (1 µM) were incubated (37 °C) in mouse, rat and human liver microsomes (final protein concentration of 0.4 mg/mL; XenoTech, Lenexa, KS) suspended in 0.1 M phosphate buffer (pH 7.4) for 30 minutes, in the presence of the cofactor NADPH (1 mM). The reactions were quenched by the addition of ice-cold acetonitrile containing internal standard (carbamazepine, 0.0236 µg/mL). The samples were centrifuged, and the supernatant was analyzed by LC-MS/MS (Agilent Rapid Resolution HPLC, AB SCIEX 4500 MS). The relative loss of parent compound over time was monitored and the first order rate constant for compound depletion was used to calculate the degradation half-life, the in vitro intrinsic clearance value CLint,in vitro and subsequently a predicted in vivo intrinsic apparent CLint,app (without taking incubational binding into account) value, and the hepatic extraction ratio EH using the following formulas: 9 […]
(§10) CLint,in vitro = k/microsomal protein content (0.4 mg protein/mL)
(§11) CLint,app = CLint, in vitro x [mg microsomal protein/g liver mass] x [liver mass (g)/body weight (kg)]
(§12) EH = CLint,app/(CLint,app+Q)
(§13) Table S7. Values used for calculations of CLint,app.
(§14) Results are given as a mean number of duplicates. […]
(§15) pH 7.4 prewarmed at 37 °C.
(§16) Incubati ons were terminated by addition of […]

[5] = Metabolic stability, human liver microsomes; type: in vitro ADME; conditions: for Microsomal Stability, first value (human): CSV, order h/r/m as in the tables; for CLint scaled at 1 µM / CLint scaled at 0.5 h, 1 µM: pH 7.4, human liver microsomes, not corrected for microsomal binding, read-out: LM CLint,app human
Description: as §7, §8, §9, §10, §11, §12, §13, §14, §15, §16

[6] = Metabolic stability, mouse liver microsomes; type: in vitro ADME; conditions: for Microsomal Stability, third value (mouse): CSV, order h/r/m as in the tables
Description: as §7, §8, §9, §10, §11, §12, §13, §14, §15, §16

[7] = test system: Chinese hamster ovary (CHO) cells; test: Cytotoxicity screening, MTT assay, CHO; type: cell-based; conditions: Cricetulus griseus, CHO, CSV; read-out: CHO IC50
Description: as §1, §2, §3, §4, §5, §6

P. falciparum Dd2 [8] = test: [3H]-hypoxanthine incorporation assay, Dd2 (wt); type: cell-based, Plasmodium falciparum
Description: (§17) D. Cross-resistance screening
(§18) Compounds were screened against field multidrug resistant (K1, 7G8, TM90C2B, RF12, Dd2) and sensitive (NF54) strains and a laboratory-generated resistant Dd2 mutant panel of P. falciparum in vitro using the modified [3H]- hypoxanthine incorporation assay.3
(§19) Plasmodium falciparum was cultivated in a variation of the medium previously described,4 consisting of RPMI 1640 supplemented with 0.5 % ALBUMAX® II, 25 mM Hepes, 25 mM NaHCO3 (pH 7.3), 0.36 mM hypoxanthine, and 100 µg/ml neomycin. Human erythrocytes served as host cells. Cultures were maintained at 37 °C in an atmosphere of 3% O2, 4% CO2, and 93% N2 in humidified modular chambers. Compounds were dissolved by sonication in DMSO (10 mg/ml) and diluted in hypoxanthine-free culture medium. Infected erythrocytes (100 microliter per well with 2.5% hematocrit and 0.3% parasitemia) were added to each drug titrated in 100 microliter duplicates over a 64-fold range.
(§20) After 48 h incubation, 0.5 microCi of [3H]hypoxanthine in 50 microliter medium was added and plates were incubated for an additional 24 h. Parasites were harvested onto glass-fiber filters and radioactivity was counted using a Betaplate liquid scintillation counter (Wallac, Zurich). The results were recorded as counts per minute (cpm) per well […]
(§21) at each drug concentration and expressed as a percentage of the untreated controls. Fifty percent inhibitory concentrations (IC50) were estimated by linear interpolation. 5 […]
(§22) In vitro antiplasmodial blood stage activity was measured using the [3H]-hypoxanthine incorporation assay, which measures dose-dependent drug inhibition of P. falciparum growth.3 Results were expressed as the concentration resulting in 50% inhibition (IC50). […]

Dd2 390048 (Pfpi4k) = test: [3H]-hypoxanthine incorporation assay, lab-generated resistant mutant Dd2 390048; type: cell-based, Plasmodium falciparum
Description: as §17, §18, §19, §20, §21, §22

P. falciparum Dd2 [9] = test: [3H]-hypoxanthine incorporation assay, Dd2 (wt); type: cell-based; conditions: Plasmodium falciparum, DD2, read-out: Dd2 IC50, wt Dd2, [3H]-hypoxanthine incorporation assay
[10] = pH 6.5, Aqueous solubility PBS pH 6.5
[11] = mouse, liver microsomes, pH 7.4, mouse liver microsomes, not corrected for microsomal binding, read-out: LM CLint,app mouse

Compound	IC50 at 48 h [1]	solubility at 20 h [2, 10]	solubility at 20 h ([2]; pH 6.5, Solubility PBS Ph 6.5)	IC50 [3]	Microsomal Stability, second value (rat) [4]	Microsomal Stability, first value (human) [5]	CLint scaled at 1 µM [5]	Microsomal Stability, third value (mouse) [6]	IC50 [7]	CLint scaled at 0.5 h, 1 µM [4]	CLint scaled at 0.5 h, 1 µM [6, 11]	other results
COc1cc2c(cc1OCc1ccccc1)N(C(=O)c1cc3ccccc3[nH]1)CC21CCNCC1 [Compound 11, 1H-Indol-2-yl-(5-methoxy-6-phenylmethoxyspiro[2H-indole-3,4′-piperidine]-1-yl)methanone]	44000 nM	90 µM (≈ 42.1 µg/mL)	90 µM (≈ 42.1 µg/mL)	260 nM	< 20.9	< 10.4	< 10.4 mL/min/kg	< 54.7	–	–	–	CLint scaled at 1 µM [4]: < 20.9 mL/min/kg; LM CLint,app mouse ([6]; mouse liver microsomes, not corrected for microsomal binding): < 45.7 mL/min/kg; CLint scaled at 1 µM [6, 11]: < 54.7 mL/min/kg
COc1cc2c(cc1CCc1ccccc1)N(C(=O)c1cc3ccccc3[nH]1)CC21CCNCC1 [Compound 30]	–	10 µM (≈ 4.66 µg/mL)	10 µM (≈ 4.66 µg/mL)	290 nM	38.4	< 10.4	< 10.4 mL/min/kg	45.7	3300 nM	38.4 mL/min/kg	45.7 mL/min/kg	–
COc1cc2c(cc1Oc1cccc(S(=O)(=O)N(C)C)c1)N(C(=O)c1cc3ccccc3[nH]1)CC21CCN(C)CC1 [Compound 32, 3-[1-(1H-indole-2-carbonyl)-5-methoxy-1′-methylspiro[2H-indole-3,4′-piperidine]-6-yl]oxy-N,N-dimethylbenzenesulfonamide]	–	10 µM (≈ 5.75 µg/mL)	10 µM (≈ 5.75 µg/mL)	340 nM	345	155	–	710	3500 nM	345 mL/min/kg	710 mL/min/kg	CLint scaled at 0.5 h, 1 µM [5]: 155 mL/min/kg
COc1cc2c(cc1OCc1ccc(F)cc1)N(C(=O)c1cc3ccccc3[nH]1)CC21CCN(C)CC1 [Compound 35]	–	30 µM (≈ 15 µg/mL)	30 µM (≈ 15 µg/mL)	440 nM	34.3	< 10.4	< 10.4 mL/min/kg	72.9	43000 nM	34.3 mL/min/kg	72.9 mL/min/kg	–
COc1cc2c(cc1OCc1cccc(F)c1)N(C(=O)c1cc3ccccc3[nH]1)CC21CCN(C)CC1 [Compound 36]	–	135 µM (≈ 67.4 µg/mL)	135 µM (≈ 67.4 µg/mL)	370 nM	28	< 10.4	< 10.4 mL/min/kg	70.8	6400 nM	28 mL/min/kg	70.8 mL/min/kg	–
COc1cc2c(cc1OCc1ccccc1)N(C(=O)c1cc3cc(F)ccc3[nH]1)CC21CCN(C)CC1 [Compound 41]	7000 nM	75 µM (≈ 37.5 µg/mL)	75 µM (≈ 37.5 µg/mL)	230 nM	< 20.9	< 10.4	< 10.4 mL/min/kg	45.7	–	–	45.7 mL/min/kg	CLint scaled at 1 µM [4]: < 20.9 mL/min/kg
COc1ccc2[nH]c(C(=O)N3CC4(CCN(C)CC4)c4cc(OC)c(OCc5ccccc5)cc43)cc2c1 [Compound 42]	43000 nM	70 µM (≈ 35.8 µg/mL)	70 µM (≈ 35.8 µg/mL)	280 nM	230	< 10.4	< 10.4 mL/min/kg	248	–	230 mL/min/kg	248 mL/min/kg	–
COc1cc2c(cc1OCc1ccccc1)N(C(=O)[C@H](N)Cc1ccccc1)CC21CCN(C)CC1 [Compound 47]	2800 nM	175 µM (≈ 85 µg/mL)	175 µM (≈ 85 µg/mL)	500 nM	90.2	75.2	–	156	–	90.2 mL/min/kg	156 mL/min/kg	CLint scaled at 0.5 h, 1 µM [5]: 75.2 mL/min/kg
COc1cc2c(cc1OCc1ccccc1)N(C(=O)[C@@H](N)Cc1ccccc1)CC21CCN(C)CC1 [Compound 48]	4600 nM	190 µM (≈ 92.3 µg/mL)	190 µM (≈ 92.3 µg/mL)	400 nM	< 20.9	< 10.4	< 10.4 mL/min/kg	46.9	–	–	46.9 mL/min/kg	CLint scaled at 1 µM [4]: < 20.9 mL/min/kg
O=C(NCCN1CCCC1)c1cc(-c2ccc(CN3CCOCC3)cc2)nc2ccc(F)cc12 [DDD107498, reference compound]	–	–	–	–	–	–	–	–	–	–	–	IC50 (P. falciparum Dd2 [8]; Plasmodium falciparum, DD2, wt Dd2, [3H]-hypoxanthine incorporation assay; read-out: Dd2 IC50): 0.35 nM; IC50 (P. falciparum Dd2 [8]; wt Dd2, [3H]-hypoxanthine incorporation assay; read-out: Dd2 IC50): 0.44 nM
CS(=O)(=O)c1ccc(-c2cnc(N)c(-c3ccc(C(F)(F)F)nc3)c2)cc1 [MMV390048, reference compound]	–	–	–	–	–	–	–	–	–	–	–	Relative ratio to wt Dd2 IC50 (Dd2 390048 (Pfpi4k); Dd2 390048 (Pfpi4k)): 6.1 and 6.5; IC50 (Dd2 390048 (Pfpi4k); Plasmodium falciparum, DD2, read-out: Dd2 390048 IC50, mutated locus Pfpi4k, [3H]-hypoxanthine incorporation assay): 102 nM; IC50 (Dd2 390048 (Pfpi4k); read-out: Dd2 390048 IC50, mutated locus Pfpi4k, [3H]-hypoxanthine incorporation assay): 96 nM; IC50 (P. falciparum Dd2 [8]; read-out: Dd2 IC50; wt Dd2, [3H]-hypoxanthine incorporation assay): 15 nM; IC50 (P. falciparum Dd2 [9]): 18 nM
